{"source": "patent US12115182B2", "about": "“Adenosine A2A agonists for the treatment of cytokine storm syndrome” (priority 2021, dated 2024)", "key": {"[1]": {"system": "MHS cells", "test": "RAGE shedding in alveolar macrophages (MHS): Western blot of sRAGE, immunofluorescence of RAGE", "assay_type": "cell-based, mouse", "settings": "GM6001 2 nM, regadenoson 100 nM; for PMA-induced shedding of cell membrane-anchored RAGE: PMA-treated MHS cells, ATL146e 10 nM"}, "[2]": {"system": "COVID-19 patients", "settings": "cited from earlier work"}, "[3]": {"system": "BAL fluid cytokines and chemokines", "test": "BAL fluid cytokines/chemokines (31 plex Luminex) in SARS CoV-2-infected K18-hACE2 mice", "assay_type": "in vivo, mouse", "experimental": "Apadenoson treatment elicits cytokine and chemokine responses that are associated with a decrease in weight loss. To assess how apadenoson treatment may be delaying the onset of severe symptoms, mice were treated as before with either vehicle (saline) or apadenoson, delivered with a five-hour delay by osmotic pumps, then euthanized on day five post-infection.\nBAL Cytokines: BAL fluid was collected with 700 μL of PBS and cells were removed via centrifugation. The BAL fluid was analyzed by a Luminex Magpix by the UVA Flow Cytometry Core facility using a Mouse 31 plex panel. Statistical changes in cytokine levels were analyzed using Welch's ANOVA followed by Dunnett's T3 multiple comparisons (Graphpad Prism 9.0). P values were adjusted for multiple testing using the Holm-Sidak method."}, "[4]": {"system": "SARS CoV-2", "test": "Apadenoson in K18-hACE2 mouse model of COVID-19: survival, weight, clinical scores", "settings": "for mice survived (combined survival data): Alzet pump 1.44 ug/kg/h, 1250 PFU", "procedure": "K18-hACE2 mice, ranging in age from 17 to 30 weeks were divided into three groups. One group received saline (vehicle), another received apadenoson 18 hours before viral challenge (drug) and a third received apadenoson five hours post viral challenge (drug with delay). The mice were challenged intranasally with 1250 PFU SARS CoV-2. Mouse weight and clinical scores were recorded daily. Mice were euthanized when they met the criteria for euthanasia (see methods) or at the end of the experiment, which was day 12 post viral challenge.\nInfection and treatment: Twenty-four hours prior to infecting Tg(K18-hACE2)2Prlmn (Jackson Laboratories) male mice with SARS CoV-2, primed 7-day Alzet® osmotic pumps (Durect, Cuperton, CA) containing saline or drug were implanted subcutaneously (MCCRAY et al., J. Virol., (2007), 81:813-821). In the drug with delay treatment group drug delivery was delayed by 24 hours by adding 2.5 cm long tubing to the pump. Apadenoson was delivered at a rate of 1.5 μg/kg/hr. Uninfected littermates received saline or drug with delay via osmotic pumps. Mice were challenged with 1250 plaque forming units (PFU) of Hong Kong/VM20001061/2020 (NR-52282, BEI Resources) via intranasal route under ketamine/xylazine anesthesia. Mice were examined twice daily for clinical symptoms and scored using the following criteria: weight loss (0-5, in 5% of initial weight loss increments), reduced activity (0-3), ruffled fur appearance and hunched posture (0-2), and an eye closure (0-2). Mice were euthanized when weight was <80% of initial weight or when they scored a maximum in two symptom categories. This experiment was repeated three times, with six animals per treatment group each time. […] Statistical differences in weight loss and clinical scores by treatment group were determined using linear mixed models accounting for day post-infection and the day the mouse died (Ime4 and ImerTest packages (BATES et al., J. Stat. Softw., (2015), 67; KUZNETSOVA et al., J. Stat. Softw., (2021), 82) in R (R Core Team 2021). For mice surviving to the end of the experiment (day 12 post-infection), day of death=15 was used. All mouse work was approved by the University's Institutional Animal Care and Use Committee and all procedures were performed in the University's certified animal Biosafety Level Three laboratory, which is fully accredited by the Association for the Assessment and Accreditation of Laboratory Animal Care, International (AAALAC)."}, "[5]": {"system": "SARS CoV-2", "test": "Viral lung titers (plaque assay) and viral burden (IHC) in K18-hACE2 mice", "assay_type": "in vivo, mouse", "experimental": "Viral Lung titers: Titers were determined as described in Moreau et al. (MOREAU et al., Am. J. Trop. Med. Hyg., (2020), 103:1215-1219). Briefly, lungs were homogenized in serum-free DMEM. Titers were determined by infecting Vero C1008, Clone E6 (ATCC CRL-1586) with serial dilutions of the homogenate. After a two-hour incubation, the diluted homogenates were replaced with a liquid overlay of DMEM, 2.5% FBS containing 1.2% Avicel PH-101 (Sigma Aldrich, St. Louis, MO) and incubated at 37° C., 5% CO2. After three days, the overlay was removed, wells were fixed with 10% formaldehyde, and stained with 0.1% crystal violet to visualize plaques. Plaques were counted and PFUs were calculated according to the following equation: Average # of plaques/dilution factor×volume of diluted virus added to the well.\nHistology: Tissues were fixed in 10% formalin. To visualize virus in the lungs, slides were stained with SARS-CoV2 specific anti-nucleoprotein antibody (Cat. No. 9099, ProSci, Poway, CA) as per manufacturer's instructions and then scanned at 20× magnification. The percentage of lung tissue infected with virus was calculated (ImageJ, version 1.53K)."}, "[6]": {"system": "SARS-CoV-2 strain B.1.351", "assay_type": "in vivo, Golden Syrian hamster"}, "[7]": {"settings": "drug with delay treatment group"}, "[8]": {"settings": "drug and drug with delay-treated groups"}, "[9]": {"settings": "PI day 7, compared to control group"}}, "note": "“Also recorded” adds a separate entry of the source.", "data": [{"compound": "CNC(=O)[C@H](Cc1c[nH]c2ccccc12)NC(=O)[C@@H](CC(=O)NO)CC(C)C", "note": "[GM6001]", "values": [{"measurement": "sRAGE shedding on LPS-treated MHS cells", "setting": "[1]; LPS 75 ng/ml, apadenoson 10 nM", "value": "inhibited sRAGE shedding"}, {"measurement": "levels of sRAGE in the conditional media (Western blot)", "setting": "[1]; PMA (20 nM)-treated MHS cells, 24 hours", "value": "decreased"}, {"measurement": "PMA-induced shedding of cell membrane-anchored RAGE", "setting": "[1]", "value": "suppressed the shedding of RAGE; also recorded: partially blocked"}]}, {"compound": "Nc1ncnc2c1ncn2[C@@H]1O[C@H](CO)[C@@H](O)[C@H]1O", "note": "[adenosine]", "values": [{"measurement": "increase in PaO2/FiO2-ratio", "setting": "[2]; aerosolized, twice daily, in 13 out of 14 patients", "value": "> 30", "unit": "%"}, {"measurement": "death rate", "setting": "[2]; inhaled adenosine group, 1/14, control group 11/52 (21%)", "value": 7, "unit": "%"}]}, {"compound": "CCNC(=O)[C@H]1O[C@@H](n2cnc3c(N)nc(C#CC[C@H]4CC[C@H](C(=O)OC)CC4)nc32)[C@H](O)[C@@H]1O", "note": "[Apadenoson]", "values": [{"measurement": "cytokines/chemokines not different between uninfected, vehicle-infected control and drug with delay-infected mice", "setting": "[3]; BAL fluid, day five post-infection", "value": "18/31"}, {"measurement": "levels of eight cytokines and chemokines (MIG, G-CSF, Eotaxin, MIP1b, VEGF, INF-g, TNF-a, KC) in BAL fluid", "setting": "[3]; [7]", "value": "not significantly different from uninfected mice"}, {"measurement": "IP-10 level in BAL fluid", "setting": "[3]; drug with delay-infected group compared to vehicle, p=0.0223", "value": "statistically higher"}, {"measurement": "MCP-1 level in BAL fluid", "setting": "[3]; drug with delay-infected group compared to vehicle, p=0.0351", "value": "statistically higher"}, {"measurement": "clinical scores compared to vehicle", "setting": "[4]; [8]", "value": "statistically significantly lower"}, {"measurement": "weight loss compared to vehicle", "setting": "[4]; [8]", "value": "less weight loss"}, {"measurement": "weight loss and clinical scores on day five post-infection", "setting": "[4]; drug with delay vs vehicle", "value": "not statistically different between groups"}, {"measurement": "mice survived (combined survival data)", "setting": "[4]; drug with delay", "value": "5/12"}, {"measurement": "survival curve compared to vehicle", "setting": "[4]; drug with delay-treated group, p=0.0002", "value": "significantly different than vehicle"}, {"measurement": "mice survived (combined survival data)", "setting": "[4]; drug with no delay", "value": "4/12"}, {"measurement": "survival curve compared to vehicle", "setting": "[4]; drug-treated group, p=0.066", "value": "did not differ significantly"}, {"measurement": "viral titers in lungs of surviving mice", "setting": "[5]; both drug treatment groups", "value": "below the limit of detection"}, {"measurement": "average viral titer of lung homogenates", "setting": "[5]; [7]", "value": "trended lower, but was not significant; also recorded: trended lower"}, {"measurement": "viral burden in lungs by IHC staining", "setting": "[5]; drug with delay treatment group, p=0.0012", "value": "significantly lower"}, {"measurement": "PMA-induced shedding of cell membrane-anchored RAGE", "setting": "[1]", "value": "partially inhibited"}, {"measurement": "PMA-induced shedding of cell membrane-anchored RAGE", "setting": "[1]; listed as apadensoson", "value": "suppressed the shedding of RAGE"}, {"measurement": "albumin leakage into BAL", "setting": "[6]; [9]", "value": "slight decrease; also recorded: did not significantly"}, {"measurement": "plasma IL13", "setting": "[6]; [9]", "value": "slightly elevated; also recorded: did not significantly"}, {"measurement": "time course of the disease or viral titer detected in throat swabs", "setting": "[6]; RT-qPCR", "value": "did not significantly"}, {"measurement": "plasma IL4", "setting": "[6]; compared to control", "value": "depressed; also recorded: did significantly"}, {"measurement": "decrease in weight gain", "setting": "[6]; daily weights, vs control group", "value": "did not significantly"}, {"measurement": "histologic distribution or severity of lung pathology", "setting": "[6]; day 7", "value": "did not significantly"}, {"measurement": "plasma Transforming Growth Factor beta (TGFb)", "setting": "[6]; day 7, compared to control", "value": "decreased; also recorded: did significantly"}, {"measurement": "spread of virus to olfactory bulb (brain)", "setting": "[6]; day 7, compared to control", "value": "decreased; also recorded: did significantly"}, {"measurement": "respiratory physiology parameters (EF50, Rpef, Penh)", "setting": "[6]; whole body plethysmography, PI day 7", "value": "did not significantly"}]}]}
